Drawing on patent publication US20240383875A1, “Benzimidazole Pyridine Derivatives” (Hoffmann-La Roche Inc., priority 2022, published 2024), this text covers IC50 for 19 compounds.

Common to all, as to type: biochemical
The target in one test is SIK1 (Homo sapiens, UniProt P57059). The test can be described thus: Enzymatic activity assay SIK1, RapidFire mass spectrometry (phosphorylation of CHK-peptide). The following applies: RapidFire MS, inhibition of SIK1; read-out: SIK1 RF IC50. As to the method: (§1) Assay description SIK1-3, RapidFire:
(§2) In the presence of SIK2 (resp. SIK1 or SIK3) and ATP the CHK-peptide ([…] with C-terminal arginine amide modification) were phosphorylated at one of the four feasible serine's. Only one phosphorylation is observed under the assay conditions. 60 nl of each compound dilution series (12 point; dilution factor 3, generally 30 μM to 170 pM) in DMSO were transferred by acoustic dispensing to the assay plate and 30 min pre-incubated (ambient temperature) after the addition of 5 μl SIK1 (5 nM) resp. 5 μl SIK2 (0.5 nM) or 7 μl SIK3 (1.5 nM) in assay-buffer (12.5 mM HEPES (pH 7.0), 10 mM magnesium acetate, 0.005% BSA). 10 μM CHK-peptide solution and 5 μl 100 μM ATP for SIK1 & SIK2 resp. 3 μl for SIK3 in assay-buffer were added and incubated ambient for 45 min. 40 μl 0.125% formic acid in water were added to quench the reaction. RapidFire (RF) Mass Spectrometry was utilized for data generation as described below. The multiple charged species (3-5 charges) for the phosphorylated and non-phosphorylated form measured by MRM (Multiple Reaction Monitoring; API5000 or 6500+) or EIC (Extracted Ion Current; QToF) were summed up and the ratio calculated (sum phosphorylated species/sum all species) for data evaluation. Normalization was performed by Genedata software based on the non-inhibition control DMSO and the commercially available SIK inhibitor @ 1 μM YKL-05-099 (CAS number 1936529-65-5). The results of the assay are expressed in half-maximal inhibitory concentrations (IC50s) and are summarized below in Table 1.
(§3) Samples were aspirated by vacuum for max. 600 ms and loaded to C4-cartridge (Agilent; #G9203A) for 3000 ms@1.5 ml/min with 0.1% formic acid in water. Afterwards samples were transferred to the APT5000 (APT6500+) or QToF mass spectrometer for 4000 ms@1.25 ml/min with 90% acetonitrile; 10% water; 0.007% TFA; 0.093 formic acid. The cartridge was reconditioned for additional 500 ms with 0.1% formic acid in water
(§4) All MS analyses using the following MS-setup in MRM mode: Electrospray positive; Ion Spray Voltage: 4000V; Temperature: 550° C.; Collision Gas: 5; Curtain Gas: 15; Gas1: 40; Gas 2: 42; EP: 10
(§5) MS-Setup Agilent QToF 6545
(§6) All MS analyses using the following MS-setup in Mode MS: Dual AJS Electrospray positive; VCap: 3000V; Drying & Sheath gas: 340° C.@81/min; Nebulizer: 60 psig; Nozzle Voltage: 2000V; Fragmentor: 130V; Skimmer: 35V; Oct1 RF Vpp: 700V; Ref masses on@5spectra/s

The target in a further test is SIK2 (Homo sapiens, UniProt Q9H0K1). Description: Enzymatic activity assay SIK2, RapidFire mass spectrometry (phosphorylation of CHK-peptide). The following applies: RapidFire MS, inhibition of SIK2; read-out: SIK2 RF IC50. As to the method: as §1
as §2, with “Only one phosphorylation is observed under the assay conditions. 60 nl of each compound dilution series (12 point; dilution factor 3, generally 30 μM to 170 pM) in DMSO were transferred by acoustic dispensing to the assay plate and 30 min pre-incubated (ambient temperature) after the addition of 5 μl SIK1 (5 nM) resp.” left out, “1936529-65-5).” for “1936529-65-5). The results of the assay are expressed in half-maximal inhibitory concentrations (IC50s) and are summarized below in Table 1.”
as §3, §4, §5, §6

In another test the target is SIK3 (Homo sapiens, UniProt Q9Y2K2). Description: Enzymatic activity assay SIK3, RapidFire mass spectrometry (phosphorylation of CHK-peptide). As to conditions: RapidFire MS, inhibition of SIK3; read-out: SIK3 RF IC50. The procedure: as §1, §2, §3, §4, §5, §6
Chain of SIK3 (Q9Y2K2 whole entry): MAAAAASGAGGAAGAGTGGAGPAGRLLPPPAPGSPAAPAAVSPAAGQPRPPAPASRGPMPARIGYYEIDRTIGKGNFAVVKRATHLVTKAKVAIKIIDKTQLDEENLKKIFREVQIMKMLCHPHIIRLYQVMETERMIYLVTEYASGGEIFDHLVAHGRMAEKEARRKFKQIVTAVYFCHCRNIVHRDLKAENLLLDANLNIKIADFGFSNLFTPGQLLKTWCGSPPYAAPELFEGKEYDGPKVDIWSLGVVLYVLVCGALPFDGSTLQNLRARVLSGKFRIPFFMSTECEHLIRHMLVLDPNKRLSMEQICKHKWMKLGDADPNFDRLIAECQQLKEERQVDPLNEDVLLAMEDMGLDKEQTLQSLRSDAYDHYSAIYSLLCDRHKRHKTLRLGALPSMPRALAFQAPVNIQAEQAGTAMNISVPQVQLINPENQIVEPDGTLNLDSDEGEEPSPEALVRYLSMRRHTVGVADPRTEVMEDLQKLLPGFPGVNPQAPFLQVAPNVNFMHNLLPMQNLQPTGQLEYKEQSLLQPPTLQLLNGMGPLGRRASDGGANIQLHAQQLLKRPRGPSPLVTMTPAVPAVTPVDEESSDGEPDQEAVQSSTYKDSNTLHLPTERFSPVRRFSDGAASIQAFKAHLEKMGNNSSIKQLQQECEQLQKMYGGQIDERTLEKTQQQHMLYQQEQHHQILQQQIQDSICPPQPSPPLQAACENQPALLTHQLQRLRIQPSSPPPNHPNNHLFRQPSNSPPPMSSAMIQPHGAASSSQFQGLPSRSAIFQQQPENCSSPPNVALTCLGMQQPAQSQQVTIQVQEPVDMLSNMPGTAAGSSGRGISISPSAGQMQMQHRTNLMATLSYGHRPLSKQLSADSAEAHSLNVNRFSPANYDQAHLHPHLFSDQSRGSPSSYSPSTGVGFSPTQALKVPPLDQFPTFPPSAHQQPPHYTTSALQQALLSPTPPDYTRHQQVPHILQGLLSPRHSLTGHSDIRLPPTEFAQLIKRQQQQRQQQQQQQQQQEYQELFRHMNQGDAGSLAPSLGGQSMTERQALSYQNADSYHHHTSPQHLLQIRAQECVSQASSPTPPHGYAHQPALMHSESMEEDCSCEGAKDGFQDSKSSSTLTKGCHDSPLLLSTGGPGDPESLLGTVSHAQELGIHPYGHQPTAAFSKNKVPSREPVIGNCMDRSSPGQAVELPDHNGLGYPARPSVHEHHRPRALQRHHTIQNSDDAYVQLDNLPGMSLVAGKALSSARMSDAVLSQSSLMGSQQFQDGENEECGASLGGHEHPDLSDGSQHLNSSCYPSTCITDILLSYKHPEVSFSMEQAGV

Chain of SIK2 (Q9H0K1 whole entry): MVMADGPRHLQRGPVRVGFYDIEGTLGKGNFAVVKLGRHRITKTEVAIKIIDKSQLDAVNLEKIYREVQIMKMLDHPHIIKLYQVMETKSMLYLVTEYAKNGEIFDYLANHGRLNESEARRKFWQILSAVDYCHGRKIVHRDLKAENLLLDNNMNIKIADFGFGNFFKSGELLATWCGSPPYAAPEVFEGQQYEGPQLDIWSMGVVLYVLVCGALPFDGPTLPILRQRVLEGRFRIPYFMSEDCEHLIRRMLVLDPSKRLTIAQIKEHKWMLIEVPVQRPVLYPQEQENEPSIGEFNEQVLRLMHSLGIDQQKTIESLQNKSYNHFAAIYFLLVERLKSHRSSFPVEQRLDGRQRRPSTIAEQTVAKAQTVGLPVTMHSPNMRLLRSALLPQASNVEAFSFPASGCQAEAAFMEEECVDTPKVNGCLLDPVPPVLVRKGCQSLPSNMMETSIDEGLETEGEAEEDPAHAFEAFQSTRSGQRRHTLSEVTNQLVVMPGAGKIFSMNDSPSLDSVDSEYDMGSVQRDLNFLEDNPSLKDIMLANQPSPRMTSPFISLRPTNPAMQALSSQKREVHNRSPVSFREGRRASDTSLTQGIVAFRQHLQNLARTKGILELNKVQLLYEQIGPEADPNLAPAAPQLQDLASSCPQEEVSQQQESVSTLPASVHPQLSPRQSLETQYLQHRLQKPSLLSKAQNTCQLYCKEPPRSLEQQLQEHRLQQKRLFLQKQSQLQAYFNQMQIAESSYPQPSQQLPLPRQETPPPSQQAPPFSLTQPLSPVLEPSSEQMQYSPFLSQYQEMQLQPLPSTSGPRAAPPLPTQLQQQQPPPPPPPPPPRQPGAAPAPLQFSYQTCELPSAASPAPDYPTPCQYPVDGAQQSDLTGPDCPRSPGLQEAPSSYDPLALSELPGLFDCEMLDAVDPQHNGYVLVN
Chain of SIK1 (P57059 whole entry): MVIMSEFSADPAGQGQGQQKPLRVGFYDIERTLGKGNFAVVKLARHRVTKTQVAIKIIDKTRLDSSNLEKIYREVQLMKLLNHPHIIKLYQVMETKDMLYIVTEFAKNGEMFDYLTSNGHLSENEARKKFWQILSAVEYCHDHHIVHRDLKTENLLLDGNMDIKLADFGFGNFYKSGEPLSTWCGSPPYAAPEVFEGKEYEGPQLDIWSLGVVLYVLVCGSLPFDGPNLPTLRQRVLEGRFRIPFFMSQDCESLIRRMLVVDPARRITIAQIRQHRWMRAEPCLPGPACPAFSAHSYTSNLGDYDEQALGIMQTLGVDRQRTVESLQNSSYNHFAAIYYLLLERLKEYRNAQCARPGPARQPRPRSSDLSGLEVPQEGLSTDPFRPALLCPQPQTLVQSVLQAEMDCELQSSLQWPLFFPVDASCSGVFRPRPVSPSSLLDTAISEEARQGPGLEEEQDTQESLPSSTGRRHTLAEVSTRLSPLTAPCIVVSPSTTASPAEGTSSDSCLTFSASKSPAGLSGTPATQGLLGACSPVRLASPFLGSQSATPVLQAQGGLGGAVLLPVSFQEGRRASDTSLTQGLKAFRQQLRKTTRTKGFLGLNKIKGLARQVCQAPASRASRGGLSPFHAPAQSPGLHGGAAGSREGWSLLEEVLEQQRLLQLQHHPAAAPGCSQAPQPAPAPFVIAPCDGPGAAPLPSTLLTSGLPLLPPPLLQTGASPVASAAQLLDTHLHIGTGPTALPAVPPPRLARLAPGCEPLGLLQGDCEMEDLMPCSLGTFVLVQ

In the case of “1-[6-[5-[[5-(azetidin-1-yl)pyridazin-3-yl]amino]-6-fluoro-benzimidazol-1-yl]-2-[3-(difluoromethyl)-5-methyl-pyrazol-1-yl]-3-pyridyl]ethanol [Example 390]”, the IC50 on SIK1 came to 5890 nM; at SIK2, 27.2 nM; at SIK3, 16 nM.
For “1-[6-[6-fluoro-5-[(5-fluoro-6-methyl-3-pyridyl)amino] benzimidazol-1-yl]-3-(1-hydroxyethyl)-2-pyridyl]-5-methyl-pyrazole-3-carbonitrile [Example 389]” the same measures were 42 nM, 7.9 nM and 5.1 nM.
For `Cc1ccc(Nc2ccc3c(c2)ncn3-c2ccc(C(C)O)c(N3CC[C@H]4NCC[C@@H]43)n2)nn1` (mixture of isomers) [Example 127, 1-[6-[5-[(6-Methylpyridazin-3-yl)amino]benzimidazol-1-yl]-2-[rac-trans-2,3,3a,5,6,6a-hexahydro-1H-pyrrolo[3,2-b]pyrrol-4-yl]-3-pyridyl]ethanol], the figures for the IC50 on SIK1, at SIK2 and at SIK3 were 457 nM, 13.7 nM and 15.5 nM, respectively.
Taken in the same sequence, the figures for `Cc1cc(C#N)nn1-c1nc(-n2cnc3cc(F)c(N[C@@H]4CNC[C@@H]4F)cc32)ccc1C(C)O` (stereo in doubt) [Example 188, 1-[6-[5-fluoro-6-[[(3R,4S)-4-fluoropyrrolidin-3-yl]amino]benzimidazol-1-yl]-3-(1-hydroxyethyl)pyridin-2-yl]-5-methylpyrazole-3-carbonitrile] were 87 nM, 70 nM and 213 nM.
Consider `COc1cc2ncn(-c3ccc(CO)c(-c4cccc(Cl)c4)n3)c2cc1OC` [Example 1, (2-(3-chlorophenyl)-6-(5,6-dimethoxy-1H-benzo[d]imidazol-1-yl)pyridin-3-yl)methanol], for which the IC50 was found to be 152 nM on SIK1, 105 nM on SIK2 and 358 nM on SIK3.
Taken in the same sequence, the figures for `COc1cc2ncn(-c3ccc(CO)c(-c4cccc(Cl)c4F)n3)c2cc1OC` [Example 15, (2-(3-Chloro-2-fluorophenyl)-6-(5,6-dimethoxy-1H-benzo[d]imidazol-1-yl)pyridin-3-yl)methanol] were 18 nM, 12.8 nM and 55.4 nM.
Consider `COc1cc2ncn(-c3ccc(CO)c(-c4ccc(F)cc4OC)n3)c2cc1OC` [Example 16, (6-(5,6-Dimethoxy-1H-benzo[d]imidazol-1-yl)-2-(4-fluoro-2-methoxyphenyl)pyridin-3-yl)methanol], for which the IC50 was found to be 692 nM at SIK1, 313 nM at SIK2 and 2180 nM at SIK3.
On to `COc1cc2ncn(-c3ccc(C(C)O)c(-c4ccc(F)cc4OC)n3)c2cc1OC` (centres unmarked) [Example 17, 1-(6-(5,6-Dimethoxy-1H-benzo[d]imidazol-1-yl)-2-(4-fluoro-2-methoxyphenyl)pyridin-3-yl)ethan-1-ol], for which the IC50 on SIK1 is 327 nM; on SIK2 it was 155 nM; at SIK3 it was 1140 nM.
Taken in the same sequence, the figures for `CCC(O)c1ccc(-n2cnc3cc(OC)c(OC)cc32)nc1-c1ccc(F)cc1OC` (centres unmarked) [Example 18, 1-(6-(5,6-Dimethoxy-1H-benzo[d]imidazol-1-yl)-2-(4-fluoro-2-methoxyphenyl)pyridin-3-yl)propan-1-ol] were 1000 nM, 988 nM and 2880 nM.
Consider `COc1cc2ncn(-c3ccc(C(C)O)c(-c4cccc(Cl)c4)n3)c2cc1OC` (centres unmarked) [Example 19, 1-(2-(3-Chlorophenyl)-6-(5,6-dimethoxy-1H-benzo[d]imidazol-1-yl)pyridin-3-yl)ethan-1-ol], for which the IC50 is 68 nM on SIK1, 26.5 nM at SIK2 and 116 nM at SIK3.
For `COc1cc2ncn(-c3ccc(C(C)O)c(-c4cccc(Cl)c4F)n3)c2cc1OC` (centres unmarked) [Example 20, 1-(2-(3-Chloro-2-fluorophenyl)-6-(5,6-dimethoxy-1H-benzo[d]imidazol-1-yl)pyridin-3-yl)ethan-1-ol] the same measures were 12 nM, 5 nM and 19.8 nM.
Take `COc1cc2ncn(-c3ccc([C@H](C)O)c(-c4ccc(F)cc4OC)n3)c2cc1OC` [Example 21, (S)-1-(6-(5,6-Dimethoxy-1H-benzo[d]imidazol-1-yl)-2-(4-fluoro-2-methoxyphenyl)pyridin-3-yl)ethan-1-ol]: the IC50 was 192 nM on SIK1, 135 nM on SIK2 and 543 nM on SIK3.
For `COc1cc2ncn(-c3ccc([C@@H](C)O)c(-c4ccc(F)cc4OC)n3)c2cc1OC` [Example 22, (R)-1-(6-(5,6-Dimethoxy-1H-benzo[d]imidazol-1-yl)-2-(4-fluoro-2-methoxyphenyl)pyridin-3-yl)ethan-1-ol] the same measures were 970 nM, 849 nM and 4480 nM.
In the case of `COc1cc2ncn(-c3ccc(C(O)C4CC4)c(-c4ccc(F)cc4OC)n3)c2cc1OC` (centres unmarked) [Example 23, Cyclopropyl(6-(5,6-dimethoxy-1H-benzo[d]imidazol-1-yl)-2-(4-fluoro-2-methoxyphenyl)pyridin-3-yl)methanol], the IC50 is 3640 nM on SIK1, 3880 nM on SIK2 and 9010 nM at SIK3.
On to `CCC(O)c1ccc(-n2cnc3cc(OC)c(OC)cc32)nc1-c1cccc(Cl)c1` (centres unmarked) [Example 24, 1-(2-(3-Chlorophenyl)-6-(5,6-dimethoxy-1H-benzo[d]imidazol-1-yl)pyridin-3-yl)propan-1-ol], for which the half-inhibitory concentration (IC50) turned out to be 353 nM at SIK1, 192 nM at SIK2 and 727 nM at SIK3.
As for `Cc1ccc(Nc2ccc3c(c2)ncn3-c2ccc(C(C)O)c(-n3nc(C#N)cc3C)n2)nn1` (centres unmarked) [Example 64, 1-[3-(1-Hydroxyethyl)-6-[5-[(6-methylpyridazin-3-yl)amino]benzimidazol-1-yl]-2-pyridyl]-5-methyl-pyrazole-3-carbonitrile], the results for the IC50 at SIK1 and on SIK3 were 59 nM and 0.6 nM, respectively.
For `Cc1ccc(Nc2ccc3c(c2)ncn3-c2ccc([C@H](C)O)c(-n3nc(C#N)cc3C)n2)nn1` [Example 109, 5-Methyl-1-[6-[5-[(6-methylpyridazin-3-yl)amino]benzimidazol-1-yl]-3-[(1S)-1-hydroxyethyl]-2-pyridyl]pyrazole-3-carbonitrile] the same measures were 1800 nM and 18.6 nM.
For `Cc1ccc(Nc2ccc3c(c2)ncn3-c2ccc([C@@H](C)O)c(-n3nc(C#N)cc3C)n2)nn1` [Example 110, 5-Methyl-1-[6-[5-[(6-methylpyridazin-3-yl)amino]benzimidazol-1-yl]-3-[(1R)-1-hydroxyethyl]-2-pyridyl]pyrazole-3-carbonitrile] the same measures were 26 nM and 0.2 nM.
As to `Cc1ccc(Nc2ccc3c(c2)ncn3-c2ccc(C(C)O)c(-c3cccnc3-c3cn[nH]c3)n2)nn1` (centres unmarked) [Example 186, 1-[6-[5-[(6-Methylpyridazin-3-yl)amino]benzimidazol-1-yl]-2-[2-(1H-pyrazol-4-yl)-3-pyridyl]-3-pyridyl]ethanol], the half-inhibitory concentration (IC50) on SIK2 stood at 1240 nM; on SIK3 it was 1060 nM.

What is called IC50 is the concentration needed to halve the response being measured.
